# Data published in paper PMC7259601 (PLoS ONE, 2020).
# Legend:
# (h)p300 = (h)p300 (Homo sapiens, UniProt Q09472); test: Epigenetic selectivity profile; type: biochemical
# Experimental: (§1) […]. MAO-A inhibition at 10 μM was 37%, in line with internal data.
# DOT1L (h) = DOT1L (h) (Homo sapiens, UniProt Q8TEK3); test: Epigenetic selectivity profile; type: biochemical
# Experimental: as §1
# FBXL10 (h) = FBXL10 (h) (Homo sapiens, UniProt Q8NHM5); test: Epigenetic selectivity profile; type: biochemical
# Experimental: as §1
# HDAC3 (h) = HDAC3 (h) (Homo sapiens, UniProt O15379); test: Epigenetic selectivity profile; type: biochemical
# Experimental: as §1
# HDAC4 (h) = HDAC4 (h) (Homo sapiens, UniProt P56524); test: Epigenetic selectivity profile; type: biochemical
# Experimental: as §1
# JMJD2A (h) = JMJD2A (h) (Homo sapiens, UniProt O75164); test: Epigenetic selectivity profile; type: biochemical
# Experimental: as §1
# JMJD3 (h) = JMJD3 (h) (Homo sapiens, UniProt O15054); test: Epigenetic selectivity profile; type: biochemical
# Experimental: as §1
# sirtuin 2 (h) = sirtuin 2 (h) (Homo sapiens, UniProt Q8IXJ6); test: Epigenetic selectivity profile; type: biochemical
# Experimental: as §1
# [1] = target: T1, 5-HT transporter (h) (antagonist radioligand) (Homo sapiens, UniProt P31645); test: CEREP Diversity Panel; type: binding
# T1 construct: purchased CEREP (Eurofins Cerep)
# Experimental: as §1
# [2] = target: T2, A1 (h) (antagonist radioligand) (Homo sapiens, UniProt P30542); test: CEREP Diversity Panel; type: binding
# T2 construct: purchased CEREP (Eurofins Cerep)
# Experimental: as §1
# [3] = target: T3, A2A (h) (agonist radioligand) (Homo sapiens, UniProt P29274); test: CEREP Diversity Panel; type: binding
# T3 construct: purchased CEREP (Eurofins Cerep)
# Experimental: as §1
# [4] = target: T4, A3 (h) (agonist radioligand) (Homo sapiens, UniProt P0DMS8); test: CEREP Diversity Panel; type: binding
# T4 construct: purchased CEREP (Eurofins Cerep)
# Experimental: as §1
# [5] = target: T5, AT1 (h) (antagonist radioligand) (Homo sapiens, UniProt P30556); test: CEREP Diversity Panel; type: binding
# T5 construct: purchased CEREP (Eurofins Cerep)
# Experimental: as §1
# [6] = target: T6, B2 (h) (agonist radioligand) (Homo sapiens, UniProt P30411); test: CEREP Diversity Panel; type: binding
# T6 construct: purchased CEREP (Eurofins Cerep)
# Experimental: as §1
# [7] = target: T7, BLT1 (LTB4) (h) (agonist radioligand) (Homo sapiens, UniProt Q15722); test: CEREP Diversity Panel; type: binding
# T7 construct: purchased CEREP (Eurofins Cerep)
# Experimental: as §1
# [8] = target: T8, CB2 (h) (agonist radioligand) (Homo sapiens, UniProt P34972); test: CEREP Diversity Panel; type: binding
# T8 construct: purchased CEREP (Eurofins Cerep)
# Experimental: as §1
# [9] = target: T9, CRF1 (h) (agonist radioligand) (Homo sapiens, UniProt P34998); test: CEREP Diversity Panel; type: binding
# T9 construct: purchased CEREP (Eurofins Cerep)
# Experimental: as §1
# [10] = target: T10, CysLT1 (LTD4) (h) (agonist radioligand) (Homo sapiens, UniProt Q9Y271); test: CEREP Diversity Panel; type: binding
# T10 construct: purchased CEREP (Eurofins Cerep)
# Experimental: as §1
# [11] = target: T11, D1 (h) (antagonist radioligand) (Homo sapiens, UniProt P21728); test: CEREP Diversity Panel; type: binding
# T11 construct: purchased CEREP (Eurofins Cerep)
# Experimental: as §1
# [12] = target: T12, D2S (h) (antagonist radioligand) (Homo sapiens, UniProt P14416); test: CEREP Diversity Panel; type: binding
# T12 construct: purchased CEREP (Eurofins Cerep)
# Experimental: as §1
# [13] = target: T13, D3 (h) (antagonist radioligand) (Homo sapiens, UniProt P35462); test: CEREP Diversity Panel; type: binding
# T13 construct: purchased CEREP (Eurofins Cerep)
# Experimental: as §1
# [14] = target: T14, EP2 (h) (agonist radioligand) (Homo sapiens, UniProt P43116); test: CEREP Diversity Panel; type: binding
# T14 construct: purchased CEREP (Eurofins Cerep)
# Experimental: as §1
# [15] = target: T15, ETB (h) (agonist radioligand) (Homo sapiens, UniProt P24530); test: CEREP Diversity Panel; type: binding
# T15 construct: purchased CEREP (Eurofins Cerep)
# Experimental: as §1
# [16] = target: T16, GR (h) (agonist radioligand) (Homo sapiens, UniProt P04150); test: CEREP Diversity Panel; type: binding
# T16 construct: purchased CEREP (Eurofins Cerep)
# Experimental: as §1
# [17] = target: T17, H1 (h) (antagonist radioligand) (Homo sapiens, UniProt P35367); test: CEREP Diversity Panel; type: binding
# T17 construct: purchased CEREP (Eurofins Cerep)
# Experimental: as §1
# [18] = target: T18, H2 (h) (antagonist radioligand) (Homo sapiens, UniProt P25021); test: CEREP Diversity Panel; type: binding
# T18 construct: purchased CEREP (Eurofins Cerep)
# Experimental: as §1
# [19] = target: T19, H3 (h) (agonist radioligand) (Homo sapiens, UniProt Q9Y5N1); test: CEREP Diversity Panel; type: binding
# T19 construct: purchased CEREP (Eurofins Cerep)
# Experimental: as §1
# [20] = target: T20, IP (PGI2) (h) (agonist radioligand) (Homo sapiens, UniProt P43119); test: CEREP Diversity Panel; type: binding
# T20 construct: purchased CEREP (Eurofins Cerep)
# Experimental: as §1
# [21] = target: T21, MC4 (h) (agonist radioligand) (Homo sapiens, UniProt P32245); test: CEREP Diversity Panel; type: binding
# T21 construct: purchased CEREP (Eurofins Cerep)
# Experimental: as §1
# [22] = target: T22, N neuronal a 4b 2 (h) (agonist radioligand) (Homo sapiens, UniProt P17787+P43681); test: CEREP Diversity Panel; type: binding
# T22 construct: purchased CEREP (Eurofins Cerep)
# Experimental: as §1
# [23] = target: T23, NK3 (h) (antagonist radioligand) (Homo sapiens, UniProt P29371); test: CEREP Diversity Panel; type: binding
# T23 construct: purchased CEREP (Eurofins Cerep)
# Experimental: as §1
# [24] = target: T24, NOP (ORL1) (h) (agonist radioligand) (Homo sapiens, UniProt P41146); test: CEREP Diversity Panel; type: binding
# T24 construct: purchased CEREP (Eurofins Cerep)
# Experimental: as §1
# [25] = target: T25, PAR1 (h) (agonist radioligand) (Homo sapiens, UniProt P25116); test: CEREP Diversity Panel; type: binding
# T25 construct: purchased CEREP (Eurofins Cerep)
# Experimental: as §1
# [26] = target: T26, PR (h) (agonist radioligand) (Homo sapiens, UniProt P06401); test: CEREP Diversity Panel; type: binding
# T26 construct: purchased CEREP (Eurofins Cerep)
# Experimental: as §1
# [27] = target: T27, TRH1 (h) (agonist radioligand) (Homo sapiens, UniProt P34981); test: CEREP Diversity Panel; type: binding
# T27 construct: purchased CEREP (Eurofins Cerep)
# Experimental: as §1
# [28] = target: T28, beta 1 (h) (agonist radioligand) (Homo sapiens, UniProt P08588); test: CEREP Diversity Panel; type: binding
# T28 construct: purchased CEREP (Eurofins Cerep)
# Experimental: as §1
# [29] = target: T29, choline transporter (CHT1) (h) (antagonist radioligand) (Homo sapiens, UniProt Q9GZV3); test: CEREP Diversity Panel; type: binding
# T29 construct: purchased CEREP (Eurofins Cerep)
# Experimental: as §1
# [30] = target: T30, dopamine transporter (h) (antagonist radioligand) (Homo sapiens, UniProt Q01959); test: CEREP Diversity Panel; type: binding
# T30 construct: purchased CEREP (Eurofins Cerep)
# Experimental: as §1
# [31] = target: T31, norepinephrine transporter (h) (antagonist radioligand) (Homo sapiens, UniProt P23975); test: CEREP Diversity Panel; type: binding
# T31 construct: purchased CEREP (Eurofins Cerep)
# Experimental: as §1
# T22 sequence (P43681 29-627 limits assumed): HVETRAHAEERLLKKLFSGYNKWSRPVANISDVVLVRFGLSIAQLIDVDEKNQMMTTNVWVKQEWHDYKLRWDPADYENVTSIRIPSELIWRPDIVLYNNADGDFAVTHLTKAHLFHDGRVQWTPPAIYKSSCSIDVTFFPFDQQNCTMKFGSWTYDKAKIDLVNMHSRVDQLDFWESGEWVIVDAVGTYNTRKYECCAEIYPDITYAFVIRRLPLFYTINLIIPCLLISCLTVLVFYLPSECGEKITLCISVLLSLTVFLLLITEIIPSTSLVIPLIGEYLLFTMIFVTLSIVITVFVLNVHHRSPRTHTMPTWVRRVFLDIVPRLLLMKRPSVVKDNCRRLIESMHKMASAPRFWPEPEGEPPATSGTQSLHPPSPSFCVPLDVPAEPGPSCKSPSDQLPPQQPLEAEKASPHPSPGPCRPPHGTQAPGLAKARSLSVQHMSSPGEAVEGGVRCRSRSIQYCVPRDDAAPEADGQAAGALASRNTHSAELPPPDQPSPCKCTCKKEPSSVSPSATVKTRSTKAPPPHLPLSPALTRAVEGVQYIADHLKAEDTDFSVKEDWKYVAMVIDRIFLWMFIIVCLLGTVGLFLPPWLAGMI
# T22 sequence (P17787 26-502): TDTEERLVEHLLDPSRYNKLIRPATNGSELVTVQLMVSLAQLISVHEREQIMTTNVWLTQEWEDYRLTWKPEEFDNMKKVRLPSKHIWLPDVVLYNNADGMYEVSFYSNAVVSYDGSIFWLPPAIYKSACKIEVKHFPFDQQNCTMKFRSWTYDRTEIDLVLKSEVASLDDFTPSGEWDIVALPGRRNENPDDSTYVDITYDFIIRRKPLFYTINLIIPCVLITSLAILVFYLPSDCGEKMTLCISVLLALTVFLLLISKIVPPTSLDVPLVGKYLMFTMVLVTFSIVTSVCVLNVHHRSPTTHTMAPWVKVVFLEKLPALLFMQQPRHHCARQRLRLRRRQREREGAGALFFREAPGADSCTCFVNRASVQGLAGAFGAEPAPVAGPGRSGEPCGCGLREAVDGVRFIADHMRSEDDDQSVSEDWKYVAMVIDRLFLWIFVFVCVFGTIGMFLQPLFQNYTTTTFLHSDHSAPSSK
# JMJD3 (h), sequence (O15054 whole entry): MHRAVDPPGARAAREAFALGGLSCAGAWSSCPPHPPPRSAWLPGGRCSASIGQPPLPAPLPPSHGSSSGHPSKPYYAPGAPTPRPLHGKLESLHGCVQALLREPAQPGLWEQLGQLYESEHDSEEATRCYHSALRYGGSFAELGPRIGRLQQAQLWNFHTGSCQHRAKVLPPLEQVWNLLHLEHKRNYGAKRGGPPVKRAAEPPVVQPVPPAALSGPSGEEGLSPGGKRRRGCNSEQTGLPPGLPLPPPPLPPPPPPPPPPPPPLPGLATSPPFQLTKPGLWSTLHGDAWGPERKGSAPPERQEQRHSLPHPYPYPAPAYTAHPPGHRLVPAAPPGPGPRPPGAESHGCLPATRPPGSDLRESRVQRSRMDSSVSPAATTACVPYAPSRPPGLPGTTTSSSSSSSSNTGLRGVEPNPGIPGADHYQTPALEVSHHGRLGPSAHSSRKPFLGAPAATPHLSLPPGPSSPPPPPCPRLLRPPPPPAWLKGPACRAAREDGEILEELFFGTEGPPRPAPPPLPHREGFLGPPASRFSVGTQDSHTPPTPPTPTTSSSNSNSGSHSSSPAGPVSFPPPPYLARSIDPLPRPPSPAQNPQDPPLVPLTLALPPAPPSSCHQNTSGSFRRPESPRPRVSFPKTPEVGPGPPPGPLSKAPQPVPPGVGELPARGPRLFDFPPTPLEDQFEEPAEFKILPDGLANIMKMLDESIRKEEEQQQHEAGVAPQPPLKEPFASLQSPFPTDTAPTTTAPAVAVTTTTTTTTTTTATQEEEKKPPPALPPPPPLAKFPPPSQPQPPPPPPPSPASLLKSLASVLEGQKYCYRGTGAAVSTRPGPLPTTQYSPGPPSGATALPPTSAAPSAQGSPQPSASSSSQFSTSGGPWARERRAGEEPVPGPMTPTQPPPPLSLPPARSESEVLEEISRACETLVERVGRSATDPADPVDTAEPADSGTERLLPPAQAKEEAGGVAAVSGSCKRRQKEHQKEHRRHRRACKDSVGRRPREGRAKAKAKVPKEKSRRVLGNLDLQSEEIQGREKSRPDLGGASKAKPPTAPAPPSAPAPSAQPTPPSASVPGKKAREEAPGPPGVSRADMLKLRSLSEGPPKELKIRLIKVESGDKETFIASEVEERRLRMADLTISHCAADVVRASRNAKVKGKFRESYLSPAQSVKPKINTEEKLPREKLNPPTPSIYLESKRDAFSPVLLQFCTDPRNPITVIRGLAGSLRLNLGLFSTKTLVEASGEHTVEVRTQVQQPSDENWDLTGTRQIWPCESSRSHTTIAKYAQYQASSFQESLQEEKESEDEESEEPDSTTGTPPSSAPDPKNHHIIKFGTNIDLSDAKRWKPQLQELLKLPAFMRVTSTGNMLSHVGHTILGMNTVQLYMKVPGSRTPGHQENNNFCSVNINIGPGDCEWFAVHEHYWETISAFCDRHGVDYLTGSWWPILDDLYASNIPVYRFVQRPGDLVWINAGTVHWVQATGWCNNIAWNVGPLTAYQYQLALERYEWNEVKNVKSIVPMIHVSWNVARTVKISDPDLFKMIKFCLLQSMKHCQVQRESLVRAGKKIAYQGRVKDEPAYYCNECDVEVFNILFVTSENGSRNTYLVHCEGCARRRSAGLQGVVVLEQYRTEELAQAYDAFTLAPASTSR
# T19 sequence (Q9Y5N1 whole entry): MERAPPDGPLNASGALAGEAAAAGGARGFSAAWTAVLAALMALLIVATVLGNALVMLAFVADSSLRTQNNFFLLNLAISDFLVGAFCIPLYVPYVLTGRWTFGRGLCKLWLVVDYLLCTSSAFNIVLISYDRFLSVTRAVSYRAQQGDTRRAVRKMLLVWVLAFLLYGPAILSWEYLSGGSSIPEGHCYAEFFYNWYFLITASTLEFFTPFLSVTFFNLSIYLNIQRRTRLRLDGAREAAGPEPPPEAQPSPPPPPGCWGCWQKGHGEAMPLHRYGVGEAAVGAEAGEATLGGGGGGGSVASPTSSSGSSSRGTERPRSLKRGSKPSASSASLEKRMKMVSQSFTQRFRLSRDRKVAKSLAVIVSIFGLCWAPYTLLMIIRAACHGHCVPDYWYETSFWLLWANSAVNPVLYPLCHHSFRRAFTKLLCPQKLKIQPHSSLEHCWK
# HDAC4 (h), sequence (P56524 whole entry): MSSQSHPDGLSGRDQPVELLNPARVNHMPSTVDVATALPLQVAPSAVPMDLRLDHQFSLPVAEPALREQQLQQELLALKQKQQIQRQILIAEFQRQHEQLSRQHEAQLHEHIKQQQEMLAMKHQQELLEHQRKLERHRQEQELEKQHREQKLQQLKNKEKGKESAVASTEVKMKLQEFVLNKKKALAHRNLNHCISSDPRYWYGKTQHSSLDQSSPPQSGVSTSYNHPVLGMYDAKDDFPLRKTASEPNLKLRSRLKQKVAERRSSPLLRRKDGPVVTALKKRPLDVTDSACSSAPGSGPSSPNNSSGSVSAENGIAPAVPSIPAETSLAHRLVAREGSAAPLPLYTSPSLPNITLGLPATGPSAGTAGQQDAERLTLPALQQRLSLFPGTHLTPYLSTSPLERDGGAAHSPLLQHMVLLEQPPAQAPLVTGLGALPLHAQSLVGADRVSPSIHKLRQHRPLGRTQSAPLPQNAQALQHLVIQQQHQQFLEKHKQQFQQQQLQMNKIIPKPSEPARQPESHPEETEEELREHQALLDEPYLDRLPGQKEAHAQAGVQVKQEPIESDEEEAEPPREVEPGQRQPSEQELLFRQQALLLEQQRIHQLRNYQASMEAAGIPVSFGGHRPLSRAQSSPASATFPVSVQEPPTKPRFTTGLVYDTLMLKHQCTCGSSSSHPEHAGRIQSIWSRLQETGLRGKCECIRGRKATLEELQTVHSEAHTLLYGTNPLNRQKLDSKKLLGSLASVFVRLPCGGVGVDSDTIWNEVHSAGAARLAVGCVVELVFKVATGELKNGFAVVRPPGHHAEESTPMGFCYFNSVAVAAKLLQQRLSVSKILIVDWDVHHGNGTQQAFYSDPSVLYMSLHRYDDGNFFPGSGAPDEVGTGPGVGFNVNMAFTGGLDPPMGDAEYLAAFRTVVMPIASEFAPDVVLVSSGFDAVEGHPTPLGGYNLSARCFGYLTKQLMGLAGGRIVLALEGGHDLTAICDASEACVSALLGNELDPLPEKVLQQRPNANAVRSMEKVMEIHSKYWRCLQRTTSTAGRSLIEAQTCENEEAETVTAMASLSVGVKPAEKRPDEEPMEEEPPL
# T2 sequence (P30542 whole entry): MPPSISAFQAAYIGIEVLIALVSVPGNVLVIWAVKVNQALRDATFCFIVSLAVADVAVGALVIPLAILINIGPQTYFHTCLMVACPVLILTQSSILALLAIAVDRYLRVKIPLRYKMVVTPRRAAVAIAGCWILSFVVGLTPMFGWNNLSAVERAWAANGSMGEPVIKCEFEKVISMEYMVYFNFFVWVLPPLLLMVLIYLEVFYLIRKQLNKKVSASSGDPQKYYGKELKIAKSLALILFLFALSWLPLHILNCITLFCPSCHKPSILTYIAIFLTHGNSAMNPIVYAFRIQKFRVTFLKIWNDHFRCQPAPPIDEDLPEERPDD
# T13 sequence (P35462 whole entry): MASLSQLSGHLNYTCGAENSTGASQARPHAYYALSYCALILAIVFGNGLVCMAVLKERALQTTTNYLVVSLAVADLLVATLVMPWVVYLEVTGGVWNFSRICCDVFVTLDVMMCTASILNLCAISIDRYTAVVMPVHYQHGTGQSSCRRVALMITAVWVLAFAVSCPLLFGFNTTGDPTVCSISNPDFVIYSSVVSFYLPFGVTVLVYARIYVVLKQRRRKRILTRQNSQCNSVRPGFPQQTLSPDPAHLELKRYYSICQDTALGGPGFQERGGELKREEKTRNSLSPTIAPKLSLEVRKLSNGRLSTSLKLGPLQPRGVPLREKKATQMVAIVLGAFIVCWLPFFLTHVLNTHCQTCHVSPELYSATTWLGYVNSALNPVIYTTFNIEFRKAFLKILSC
smiles,measurement,setting,value
"Nc1nnc(CN[C@@H]2C[C@H]2c2ccc(OCc3ccccc3)cc2)o1 [ORY-2001, vafidemstat]",inhibition at 10 µM,(h)p300,0%
same,inhibition at 10 µM,DOT1L (h),-1%
same,inhibition at 10 µM,FBXL10 (h),8%
same,inhibition at 10 µM,HDAC3 (h),-1%
same,inhibition at 10 µM,HDAC4 (h),0%
same,inhibition at 10 µM,JMJD2A (h),7%
same,inhibition at 10 µM,JMJD3 (h),4%
same,inhibition at 10 µM,sirtuin 2 (h),5%
same,inhibition at 10 µM,[1],2%
same,inhibition at 10 µM,[2],0%
same,inhibition at 10 µM,[3],-8%
same,inhibition at 10 µM,[4],-4%
same,inhibition at 10 µM,[5],-2%
same,inhibition at 10 µM,[6],-5%
same,inhibition at 10 µM,[7],33%
same,inhibition at 10 µM,[8],14%
same,inhibition at 10 µM,[9],18%
same,inhibition at 10 µM,[10],4%
same,inhibition at 10 µM,[11],-5%
same,inhibition at 10 µM,[12],-8%
same,inhibition at 10 µM,[13],8%
same,inhibition at 10 µM,[14],18%
same,inhibition at 10 µM,[15],-8%
same,inhibition at 10 µM,[16],-9%
same,inhibition at 10 µM,[17],-9%
same,inhibition at 10 µM,[18],-3%
same,inhibition at 10 µM,[19],-1%
same,inhibition at 10 µM,[20],31%
same,inhibition at 10 µM,[21],7%
same,inhibition at 10 µM,[22],-3%
same,inhibition at 10 µM,[23],2%
same,inhibition at 10 µM,[24],0%
same,inhibition at 10 µM,[25],-2%
same,inhibition at 10 µM,[26],-11%
same,inhibition at 10 µM,[27],3%
same,inhibition at 10 µM,[28],7%
same,inhibition at 10 µM,[29],-2%
same,inhibition at 10 µM,[30],33%
same,inhibition at 10 µM,[31],26%
